{"source": "paper PMC6751026", "about": "(Addiction biology, 2019)", "molecular_target": "T1, α1 glycine receptor (GlyR) (Mus musculus, UniProt Q64018, K421A/K422A)", "T1 sequence (Q64018 29-457 K421A/K422A)": "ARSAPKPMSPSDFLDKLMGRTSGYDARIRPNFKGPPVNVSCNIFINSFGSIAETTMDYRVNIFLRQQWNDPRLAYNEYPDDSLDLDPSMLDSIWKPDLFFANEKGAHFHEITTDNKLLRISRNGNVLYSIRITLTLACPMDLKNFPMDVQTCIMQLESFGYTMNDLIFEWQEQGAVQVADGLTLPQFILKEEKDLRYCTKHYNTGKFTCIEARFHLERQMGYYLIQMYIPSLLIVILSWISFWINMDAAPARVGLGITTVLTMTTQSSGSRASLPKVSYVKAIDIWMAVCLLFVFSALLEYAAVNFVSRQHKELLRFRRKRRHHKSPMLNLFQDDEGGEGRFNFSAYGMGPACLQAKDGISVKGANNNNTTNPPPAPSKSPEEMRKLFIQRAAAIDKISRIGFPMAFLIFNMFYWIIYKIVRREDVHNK", "assay": "whole-cell patch clamp, glycine concentration-response", "type": "cell-based"}
{"smiles": "NCC(=O)O", "note": "[glycine]", "values": [{"measurement": "EC50", "value": "54 ± 1", "unit": "µM"}]}
